From ChEMBL document CHEMBL4130427, “Synthesis and evaluation of asymmetric curcuminoid analogs as potential anticancer agents that downregulate NF-κB activation and enhance the sensitivity of gastric cancer cell lines to irinotecan chemotherapy” (Eur J Med Chem, 2017)
Active and inactive are the calls of the source. The rule behind the calls is not given here.

Key:
BGC-823 [1] = assay: Growth inhibition of human BGC823 cells at 20 uM after 72 hrs by MTT assay; assay type: functional, cell-based
BGC-823 [2] = assay: Potency index, ratio of compound effect to curcumin effect for growth inhibition of human BGC823 cells; assay type: functional
SGC-7901 [3] = assay: Growth inhibition of human SGC7901 cells at 20 uM after 72 hrs by MTT assay; assay type: functional, cell-based
SGC-7901 [4] = assay: Potency index, ratio of compound effect to curcumin effect for growth inhibition of human SGC7901 cells; assay type: functional
Mus musculus = species on record: Mus musculus; assay: Growth inhibition of MFC cells at 20 uM after 72 hrs by MTT assay; assay type: functional
BGC-823 [5] = assay: Growth inhibition of human BGC823 cells after 72 hrs by MTT assay; assay type: functional, cell-based; details: BGC-823, 72 h
SGC-7901 [6] = assay: Growth inhibition of human SGC7901 cells after 72 hrs by MTT assay; assay type: functional, cell-based; details: SGC-7901, 72 h
BGC-823 [7] = assay: Inhibition of colony formation in human BGC823 cells treated for 12 hrs followed by incubation in drug free medium for 14 days by crystal violet staining based assay; assay type: functional, cell-based
SGC-7901 [8] = assay: Inhibition of colony formation in human SGC7901 cells treated for 12 hrs followed by incubation in drug free medium for 14 days by crystal violet staining based assay; assay type: functional, cell-based
BGC-823 [9] = assay: Induction of apoptosis in human BGC823 cells assessed as downregulation of bcl2 protein expression at 2.5 to 5 uM after 48 hrs by Western blot method; assay type: functional, cell-based
SGC-7901 [10] = assay: Induction of apoptosis in human SGC7901 cells assessed as downregulation of bcl2 protein expression at 2.5 to 5 uM after 48 hrs by Western blot method; assay type: functional, cell-based
BGC-823 [11] = assay: Induction of apoptosis in human BGC823 cells assessed as upegulation of cleaved PARP protein expression at 2.5 to 5 uM after 48 hrs by Western blot method; assay type: functional, cell-based
SGC-7901 [12] = assay: Induction of apoptosis in human SGC7901 cells assessed as upegulation of cleaved PARP protein expression at 2.5 to 5 uM after 48 hrs by Western blot method; assay type: functional, cell-based
BGC-823 [13] = assay: Induction of apoptosis in human BGC823 cells assessed as upegulation of cleaved caspase-3 protein expression at 2.5 to 5 uM after 48 hrs by Western blot method; assay type: functional, cell-based
SGC-7901 [14] = assay: Induction of apoptosis in human SGC7901 cells assessed as upegulation of cleaved caspase-3 protein expression at 2.5 to 5 uM after 48 hrs by Western blot method; assay type: functional, cell-based
BGC-823 [15] = assay: Induction of apoptosis in human BGC823 cells assessed as upegulation of Bax protein expression at 2.5 to 5 uM after 48 hrs by Western blot method; assay type: functional, cell-based
SGC-7901 [16] = assay: Induction of apoptosis in human SGC7901 cells assessed as upegulation of Bax protein expression at 2.5 to 5 uM after 48 hrs by Western blot method; assay type: functional, cell-based
SGC-7901 [17] = assay: Induction of apoptosis in human SGC7901 cells assessed as apoptotic nuclei formation at 2.5 to 5 uM after 24 hrs by Hoechst 33258 staining based fluorescence microscopic method; assay type: functional, cell-based
Homo sapiens [18] = species on record: Homo sapiens; assay: Inhibition of NFkappaB activation in human BGC823 cells assessed as reduction in TNFalpha-induced IkBalpha degradation at 1 to 5 uM preincubated for 2 hrs followed by TNFalpha addition measured after 30 mins by Western blot method; assay type: cell-based
Homo sapiens [19] = species on record: Homo sapiens; assay: Inhibition of NFkappaB activation in human SGC7901 cells assessed as reduction in TNFalpha-induced IkBalpha degradation at 1 to 5 uM preincubated for 2 hrs followed by TNFalpha addition measured after 30 mins by Western blot method; assay type: cell-based
Homo sapiens [20] = species on record: Homo sapiens; assay: Inhibition of NFkappaB activation in human BGC823 cells assessed as potentiation of irrinotecan-induced cell growth inhibition at 1 uM after 48 hrs by inverted microscopic method relative to (3E,5E)-3-(2,3-dimethoxybenzylidene)-5-(4-hydroxy-3-methoxybenzylidene)dihydro-2H-pyran-4(3H)-one alone; assay type: cell-based
Homo sapiens [21] = species on record: Homo sapiens; assay: Inhibition of NFkappaB activation in human BGC823 cells assessed as potentiation of irrinotecan-induced cell growth inhibition at 1 uM after 48 hrs by inverted microscopic method relative to irrinotecan alone; assay type: cell-based
Homo sapiens [22] = species on record: Homo sapiens; assay: Inhibition of NFkappaB activation in human BGC823 cells assessed as potentiation of irrinotecan-induced cell growth inhibition at 1 uM after 72 hrs by MTT method relative to (3E,5E)-3-(2,3-dimethoxybenzylidene)-5-(4-hydroxy-3-methoxybenzylidene)dihydro-2H-pyran-4(3H)-one alone; assay type: cell-based
Homo sapiens [23] = species on record: Homo sapiens; assay: Inhibition of NFkappaB activation in human BGC823 cells assessed as potentiation of irrinotecan-induced cell growth inhibition at 1 uM after 72 hrs by MTT method relative to irrinotecan alone; assay type: cell-based
Homo sapiens [24] = species on record: Homo sapiens; assay: Inhibition of NFkappaB activation in human BGC823 cells assessed as potentiation of irrinotecan-induced decrease in survival cell count at 1 uM after 48 hrs by cell analyzer method; assay type: cell-based
Homo sapiens [25] = species on record: Homo sapiens; assay: Inhibition of NFkappaB activation in human BGC823 cells assessed as potentiation of irrinotecan-induced decrease in colony formation at 1 uM preincubated for 12 hrs followed by incubation in drug free medium for 11 days by crystal violet staining based assay; assay type: cell-based
BGC-823 [26] = assay: Inhibition of colony formation in human BGC823 cells at 5 uM treated for 12 hrs followed by incubation in drug free medium for 14 days by crystal violet staining based assay; assay type: functional, cell-based
SGC-7901 [27] = assay: Inhibition of colony formation in human SGC7901 cells at 5 uM treated for 12 hrs followed by incubation in drug free medium for 14 days by crystal violet staining based assay; assay type: functional, cell-based

**Q.** For `COc1ccc(/C=C2\COC/C(=C\c3ccc(O)c(OC)c3)C2=O)cc1O`, which “growth inhibition (GI)” value (BGC-823 [1]) is on record?
**A.** The value was “Active”.

**Q.** And the Ratio (BGC-823 [2])?
**A.** The Ratio was greater than 10.

**Q.** And the “growth inhibition (GI)” value (SGC-7901 [3])?
**A.** The value was “Active”.

**Q.** What about the Ratio (SGC-7901 [4]) of the same molecule?
**A.** Its Ratio is greater than 2.

**Q.** What about the “growth inhibition (GI)” value (Mus musculus) of the same molecule?
**A.** Its value is “Active”.

**Q.** How did the “growth inhibition (GI)” value (SGC-7901 [3]) turn out when `COc1ccc(/C=C2\COC/C(=C\c3ccc(O)c(OC)c3)C2=O)c(OC)c1` was run?
**A.** Its value is “Active”.

**Q.** What about the Ratio (SGC-7901 [4]) of the same molecule?
**A.** Its Ratio is greater than 2.

**Q.** Which results are given for `COc1ccc(OC)c(/C=C2\COC/C(=C\c3ccc(O)c(OC)c3)C2=O)c1`?
**A.** growth inhibition (GI) (BGC-823 [1]): Active; Ratio (BGC-823 [2]): >10; growth inhibition (GI) (SGC-7901 [3]): Active; Ratio (SGC-7901 [4]): >2; growth inhibition (GI) (Mus musculus): Active

**Q.** With `COc1ccc(/C=C2\COC/C(=C\c3ccc(O)c(OC)c3)C2=O)c(C(F)(F)F)c1` as the molecule, how does the “growth inhibition (GI)” value (BGC-823 [1]) read?
**A.** Its value is “Active”.

**Q.** And the Ratio (BGC-823 [2])?
**A.** Its Ratio is greater than 10.

**Q.** What about the “growth inhibition (GI)” value (SGC-7901 [3]) of the same molecule?
**A.** The value was “Active”.

**Q.** What about the Ratio (SGC-7901 [4]) of the same molecule?
**A.** The Ratio was greater than 2.

**Q.** `COc1cc(/C=C/C(=O)CC(=O)/C=C/c2ccc(O)c(OC)c2)ccc1O` was tested. Which “growth inhibition (GI)” value (BGC-823 [1]) did it give?
**A.** Its value is “Active”.

**Q.** And the “growth inhibition (GI)” value (SGC-7901 [3])?
**A.** The value was “Active”.

**Q.** What about the “growth inhibition (GI)” value (Mus musculus) of the same molecule?
**A.** The value was “Active”.

**Q.** How did the “growth inhibition (GI)” value (BGC-823 [1]) turn out when `Cc1ccc2nc(NCCN)c3ncc(C)n3c2c1` was run?
**A.** Its value is “Active”.

**Q.** What about the “growth inhibition (GI)” value (SGC-7901 [3]) of the same molecule?
**A.** The value was “Active”.

**Q.** What about the “growth inhibition (GI)” value (Mus musculus) of the same molecule?
**A.** The value was “Active”.

**Q.** Which “growth inhibition (GI)” value (BGC-823 [1]) does the source give for `COc1cc(/C=C2\COC/C(=C\c3cccc(OC)c3OC)C2=O)ccc1O` here?
**A.** Its value is “Active”.

**Q.** And the Ratio (BGC-823 [2])?
**A.** Its Ratio is greater than 10.

**Q.** What about the “growth inhibition (GI)” value (SGC-7901 [3]) of the same molecule?
**A.** Its value is “Active”.

**Q.** What about the Ratio (SGC-7901 [4]) of the same molecule?
**A.** The Ratio was greater than 2.

**Q.** What about the “growth inhibition (GI)” value (Mus musculus) of the same molecule?
**A.** Its value is “Active”.

**Q.** What about the IC50 (BGC-823 [5]) of the same molecule?
**A.** The IC50 was 3500 nM.

**Q.** And the IC50 (SGC-7901 [6])?
**A.** The IC50 was 1600 nM.

**Q.** What about the inhibition (BGC-823 [7]) of the same molecule?
**A.** The inhibition was “Dose-dependent effect”.

**Q.** And the inhibition (SGC-7901 [8])?
**A.** The inhibition was “Dose-dependent effect”.

**Q.** What about the Activity (BGC-823 [9]) of the same molecule?
**A.** The Activity was “Active”.

**Q.** And the Activity (SGC-7901 [10])?
**A.** The Activity was “Active”.

**Q.** And the Activity (BGC-823 [11])?
**A.** The Activity was “Active”.

**Q.** And the Activity (SGC-7901 [12])?
**A.** Its Activity is “Active”.

**Q.** What about the Activity (BGC-823 [13]) of the same molecule?
**A.** The Activity was “Active”.

**Q.** And the Activity (SGC-7901 [14])?
**A.** Its Activity is “Active”.

**Q.** And the Activity (BGC-823 [15])?
**A.** Its Activity is “Active”.

**Q.** What about the Activity (SGC-7901 [16]) of the same molecule?
**A.** Its Activity is “Active”.

**Q.** And the Activity (SGC-7901 [17])?
**A.** The Activity was “Active”.

**Q.** And the inhibition (Homo sapiens [18])?
**A.** Its inhibition is “Dose-dependent effect”.

**Q.** What about the inhibition (Homo sapiens [19]) of the same molecule?
**A.** Its inhibition is “Dose-dependent effect”.

**Q.** What about the fold change (FC) (Homo sapiens [20]) of the same molecule?
**A.** The fold change (FC) was 3.

**Q.** What about the fold change (FC) (Homo sapiens [21]) of the same molecule?
**A.** Its fold change (FC) is 2.

**Q.** And the fold change (FC) (Homo sapiens [22])?
**A.** The fold change (FC) was 2.5.

**Q.** What about the fold change (FC) (Homo sapiens [23]) of the same molecule?
**A.** Its fold change (FC) is 10.

**Q.** What about the inhibition (Homo sapiens [24]) of the same molecule?
**A.** Its inhibition is “Active”.

**Q.** And the inhibition (Homo sapiens [25])?
**A.** Its inhibition is “Active”.

**Q.** How did the inhibition (BGC-823 [26]) turn out when `Cc1ccc(S(=O)(=O)/C=C/C#N)cc1` was run?
**A.** Its inhibition is “Active”.

**Q.** What about the inhibition (SGC-7901 [27]) of the same molecule?
**A.** Its inhibition is “Active”.
